Molecules are shown by their SMILES.

In data set [1] the test system is Human mammary adenocarcinoma (MCF7) cells. The data set is described as follows: Cell viability (MTT) and EC50, MCF7. It counts as cell-based. The note with it: for effect on cell viability (in words): MCF7, 48 h, four doses (nanocomposites 0.025-0.5 mg/ml). The protocol:
(§1) Human mammary adenocarcinoma (MCF7) and the non-cancerous human foreskin fibroblasts (HFF) cell lines were used to assess the cytotoxic effect of the prepared compounds. Cells were cultured in a DMEM culture medium containing 10% HI—FBS, 1% Penicillin Streptomycin, and 1% MEM NEAA. Cells were maintained in a humidified setting at 37° C. with 5% CO2. For cell viability assay, cells were seeded in a 96-well plate with a density of 20,000 cells/well. While for microscopic images, 50,000 cells/well were plated on an eight-well chamber slide. On the following day, cells were switched to the starve culture medium that contains 0.5% HI—FBS. Cells were maintained for 24 h in the starve medium before the treatment was added.
(§2) MCF7 and HFF cells were treated with the subsequent conditions for 48 h: CuFe2O4/Mesosilicalite, Curcumin, Cisplatin, CuFe2O4/Mesosilicalite/Curcumin, CuFe2O4/Mesosilicalite/Curcumin/Cisplatin, or CuFe2O4/MCM-41/Curcumin/Cisplatin. Treatment concentrations of CuFe2O4/Mesosilicalite, CuFe2O4/Mesosilicalite/Curcumin, CuFe2O4/Mesosilicalite/Curcumin/Cisplatin, and CuFe2O4/MCM-41/Curcumin/Cisplatin nanocomposites were: 0.025, 0.05, 0.1, and 0.5 mg/ml. Based on the drug loading experiments, simple calculations were followed to reflect the actual quantity of curcumin and cisplatin that adsorbed on CuFe2O4/Mesosilicalite nanoparticles. According to the loading experiments, 1 mg of CuFe2O4 nanoparticles contains 0.25 mg and 0.045 mg of curcumin and cisplatin, respectively. Thus, if CuFe2O4/Mesosilicalite concentration was 0.5 mg/ml, there is 0.125 mg/ml of adsorbed curcumin and 0.0225 mg/ml of functionalized cisplatin. Therefore, the treatment concentrations of curcumin were: 0.00625, 0.0125, 0.025 and 0.125 mg/ml and the treatment concentrations of cisplatin were: 0.001125, 0.00225, 0.0045 and 0.0225 mg/ml.
(§3) To assess the compounds' cytotoxicity, 3-(4,5-dimethylthiazol-2-yl)-2,5-diphenyltetrazolium bromide (MTT), a cell viability assay, was used. It measures the cell viability by assessing the mitochondria's ability to convert yellow MTT solution into purple formazan insoluble crystals. […] The difference in color intensity was measured by SYNERGY-neo2 BioTek ELISA reader at 570 nm as a measuring wavelength. The technical triplicate readings of each condition were averaged, and the absorbance from MTT negative control was deducted from these readings. An initial reading was measured before MTT addition at the same wavelength. Thus, to remove undesirable interference in the measurement, the initial reading was subtracted from the final reading. Then, the treatment groups were analyzed by comparing them to the control (untreated cells). Cell viability was calculated using the following equation (1): […]

In data set [2] the test system is non-cancerous human foreskin fibroblasts (HFF). The data set is described as follows: Cell viability (MTT) and EC50, HFF. The data set is classed as cell-based. The note with it: for effect on cell viability (in words): HFF, 48 h, four doses (nanocomposites 0.025-0.5 mg/ml). On the procedure:
as §1, §2, §3

Data set [3] in a line: Cell viability (MTT) and EC50, HFF. It counts as cell-based, human. The note with it: human, HFF cells (non-cancerous human foreskin fibroblasts); HFF, third dose (0.1 mg/ml nanocomposite; 0.025 mg/ml curcumin), 48 h, versus untreated control. The protocol: as §1, §2, §3

Take `N.N.[Cl][Pt][Cl]` [Cisplatin, cisplatin]: the “effect on cell viability (in words)” value in data set [1] and in data set [2] was “reduction in cell viability” in each case. Besides, the “EC50 Value” in data set [1] (MCF-7 cell line, 48 h MTT, best-fit line) was determined as 4.425 µg/mL; in data set [2] (HFF cell line, 48 h MTT, best-fit line), 3.763 µg/mL.
In general, viability refers to the share of living cells, or the viability signal relative to a control. As for `COc1cc(/C=C/C(=O)CC(=O)/C=C/c2ccc(O)c(OC)c2)ccc1O` [Curcumin], in data set [1] (Homo sapiens, MCF7, third dose (0.1 mg/ml nanocomposite; 0.025 mg/ml curcumin), 48 h, versus untreated control), the viability at 25 µg/mL was 80.7%. Besides, the figures for the “effect on cell viability (in words)” value in data set [1] and in data set [2] were “reduced cell viability only at the highest concentration” and “minimally reduced the cell viability”, respectively. Also, the viability at 48 h, 0.025 mg/ml in data set [3] is 84.1%.

The record behind these values is patent US12171842B2, “Method for hyperthermially treating a cancer” (Imam Abdulrahman Bin Faisal University, priority 2021, dated 2024).
